This is an account of results in US11117947B2, “Double-acylated GLP-1 derivatives” (Novo Nordisk A/S, priority 2011, dated 2021).

Where two headings read alike, the source gives them in different places. Numbered stars: 1 amine (or outer) side, 2 acyl side, 3 side chain; on linkers, the order of the positions; unused ones are H or OH. Square brackets hold non-standard residues; d marks the D form. Side chains are listed from the residue outwards. Peptide text beside a SMILES is read from it. * marks the point of attachment. Decanoyl(10-(4-HOOC-PhO)) = O=C(O)c1ccc(OCCCCCCCCCC(=O)*)cc1; d(γGlu) = O=C(O)[C@@H](CCC(=O)[*:2])N[*:1]; γGlu = O=C(O)[C@H](CCC(=O)[*:2])N[*:1]; AEEA = NCCOCCOCC(=O)O; Aib = CC(C)(N)C(=O)O

In data set [1] the target is T1, human GLP-1 receptor (Homo sapiens, UniProt P43220).
T1 construct: expressed in transfected cells; membranes
The data set is described as follows: In vitro potency: stimulation of cAMP formation (AlphaScreen cAMP Assay) in membranes expressing the human GLP-1 receptor. Format: biochemical. Conditions: membranes from BHK467-12A (tk-ts13) expressing the human GLP-1 receptor. As for the experimental part: Purified plasma membranes from a stable transfected cell line, BHK467-12A (tk-ts13), expressing the human GLP-1 receptor were stimulated with the GLP-1 analogue or derivative in question, and the potency of cAMP production was measured using the AlphaScreen™ cAMP Assay Kit from Perkin Elmer Life Sciences. The basic principle of the AlphaScreen Assay is a competition between endogenous cAMP and exogenously added biotin-cAMP. The capture of cAMP is achieved by using a specific antibody conjugated to acceptor beads.
A stable transfected cell line and a high expressing clone were selected for screening. The cells were grown at 5% CO2 in DMEM, 5% FCS, 1% Pen/Strep (Penicillin/Streptomycin) and 0.5 mg/ml of the selection marker G418.
Cells at approximately 80% confluence were washed 2× with PBS and harvested with Versene (aqueous solution of the tetrasodium salt of ethylenediaminetetraacetic acid), centrifuged 5 min at 1000 rpm and the supernatant removed. The additional steps were all performed on ice. The cell pellet was homogenised by the Ultrathurax for 20-30 s in 10 ml of Buffer 1 (20 mM Na-HEPES, 10 mM EDTA, pH=7.4), centrifuged 15 min at 20,000 rpm and the pellet resuspended in 10 ml of Buffer 2 (20 mM Na-HEPES, 0.1 mM EDTA, pH=7.4). The suspension was homogenised for 20-30 s and centrifuged 15 min at 20,000 rpm. Suspension in Buffer 2, homogenisation and centrifugation was repeated once and the membranes were resuspended in Buffer 2. The protein concentration was determined and the membranes stored at −80° C. until use.
The final volume per well was 50 μl.
AlphaScreen cAMP Assay Kit from Perkin Elmer Life Sciences (cat. No: 6760625M); containing Anti-cAMP Acceptor beads (10 U/μl), Streptavidin Donor beads (10 U/μl) and Biotinylated-cAMP (133 U/μl).
cAMP standard (dilution factor in assay=5): cAMP Solution: 5 μL of a 5 mM cAMP-stock+495 μL AlphaScreen Buffer.
Membranes were prepared from hGLP-1/BHK 467-12A cells with a concentration of 6 μg/well corresponding to 0.6 mg/ml (the amount of membranes used pr. well may vary)
“No membranes”: Acceptor Beads (15 μg/ml final) in AlphaScreen buffer
“6 μg/well membranes”: membranes+Acceptor Beads (15 μg/ml final) in AlphaScreen buffer
An aliquot (10 μl) of “No membranes” was added to the cAMP standard (per well in duplicate wells) and the positive and negative controls
An aliquot (10 μl) of “6 μg/well membranes” was added to GLP-1 and analogues (per well in duplicate or triplicate wells)
Pos. Control: 10 μl “no membranes”+10 μl AlphaScreen Buffer
Neg. Control: 10 μl “no membranes”+10 μl cAMP Stock Solution (50 μM)
1. Make the AlphaScreen Buffer.
2. Dissolve and dilute the GLP-1/Analogues/cAMP standard in AlphaScreen Buffer.
4. Add the cAMP/GLP-1/Analogues to the plate: 10 μl per well.
5. Prepare membrane/Acceptor Beads solution and add this to the plates: 10 μl per well.
6. Add the Donor Beads: 30 μl per well.

For data set [2], the target named is T1, human GLP-1 receptor. The data set is described as follows: GLP-1 receptor binding: displacement of 125I-GLP-1 (SPA) at low and high albumin. In short, it runs like this: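 Membranes from hamster cells stably transfected with the receptor, with WGA SPA beads and 0.06 nM [^125I]-GLP-1(7-36)NH2, incubated 120 min at 30 °C with shaking.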
The nature of data set [3]: Estimate of oral bioavailability: gut injection in rat (caprate), exposure in plasma. The format is in vivo. Particulars: injection in jejunum, 1000 uM in 55 mg/ml sodium caprate, plasma concentration (pM) at 30 min divided by dosing solution concentration (μM), mean n=4. A digest of the protocol: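 Male Sprague Dawley rats (~240 g, n=4) received 100 μl of 1000 uM derivative in 55 mg/ml sodium caprate by catheter into proximal or mid jejunum. Tail-vein EDTA plasma was sampled up to 240 min. Peptide was quantified by two-antibody bead chemiluminescence immunoassay, giving mean concentration-time profiles (pmol/l).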

T1 sequence (P43220 24-463): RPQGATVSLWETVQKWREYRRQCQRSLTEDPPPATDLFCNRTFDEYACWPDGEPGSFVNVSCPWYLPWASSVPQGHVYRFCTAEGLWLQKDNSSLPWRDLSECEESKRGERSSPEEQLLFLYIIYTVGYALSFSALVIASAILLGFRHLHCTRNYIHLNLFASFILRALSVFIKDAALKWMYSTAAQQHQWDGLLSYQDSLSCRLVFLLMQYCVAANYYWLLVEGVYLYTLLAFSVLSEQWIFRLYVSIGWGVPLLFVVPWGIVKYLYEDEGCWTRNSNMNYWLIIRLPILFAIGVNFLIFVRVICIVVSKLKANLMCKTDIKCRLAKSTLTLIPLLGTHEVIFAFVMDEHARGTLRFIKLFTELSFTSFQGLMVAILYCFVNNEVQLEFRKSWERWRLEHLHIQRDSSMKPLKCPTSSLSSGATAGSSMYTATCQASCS

As usually defined, the EC50 is the concentration needed to bring the measured effect to its halfway point. Higher therefore signals a less potent agent. With `CC[C@H](C)[C@H](NC(=O)[C@H](Cc1ccccc1)NC(=O)[C@H](CCCCNC(=O)CC[C@H](NC(=O)COCCOCCNC(=O)COCCOCCNC(=O)CC[C@@H](NC(=O)CCCCCCCCCOc1ccc(C(=O)O)cc1)C(=O)O)C(=O)O)NC(=O)[C@H](CCCNC(=N)N)NC(=O)[C@@H](NC(=O)[C@H](C)NC(=O)[C@H](CCC(N)=O)NC(=O)CNC(=O)[C@H](CCC(=O)O)NC(=O)[C@H](CC(C)C)NC(=O)[C@H](Cc1ccc(O)cc1)NC(=O)[C@H](CO)NC(=O)[C@H](CO)NC(=O)[C@@H](NC(=O)[C@H](CC(=O)O)NC(=O)[C@H](CO)NC(=O)[C@@H](NC(=O)[C@H](Cc1ccccc1)NC(=O)[C@@H](NC(=O)CNC(=O)[C@H](CCC(=O)O)NC(=O)[C@H](C)NC(=O)[C@@H](N)Cc1c[nH]cn1)[C@@H](C)O)[C@@H](C)O)C(C)C)C(C)C)C(=O)N[C@@H](C)C(=O)N[C@@H](Cc1c[nH]c2ccccc12)C(=O)N[C@@H](CC(C)C)C(=O)N[C@H](C(=O)N[C@@H](CCC(N)=O)C(=O)NCC(=O)N[C@@H](CCCCNC(=O)CC[C@H](NC(=O)COCCOCCNC(=O)COCCOCCNC(=O)CC[C@@H](NC(=O)CCCCCCCCCOc1ccc(C(=O)O)cc1)C(=O)O)C(=O)O)C(=O)NCC(=O)O)C(C)C` [Example 26] (H-HAEGTFTSDVSSYLEGQAVRK([γGlu-AEEA-AEEA-d(γGlu)-Decanoyl(10-(4-HOOC-PhO))])FIAWLVQGK([γGlu-AEEA-AEEA-d(γGlu)-Decanoyl(10-(4-HOOC-PhO))])G-OH; N-terminus and C-terminus assumed), the concentration for a half-maximal effect (EC50) in data set [1] was determined as 0.2 nM. The IC50 in data set [2] (low albumin, 0.001% HSA, read-out: IC50/nM (low HSA)) turned out to be 0.38 nM. Consider `CC[C@H](C)[C@H](NC(=O)[C@H](Cc1ccccc1)NC(=O)[C@H](CCCCNC(=O)COCCOCCNC(=O)COCCOCCNC(=O)CC[C@H](NC(=O)CCCCCCCCCOc1ccc(C(=O)O)cc1)C(=O)O)NC(=O)[C@H](CCCNC(=N)N)NC(=O)[C@H](C)NC(=O)[C@H](CCCCNC(=O)COCCOCCNC(=O)COCCOCCNC(=O)CC[C@H](NC(=O)CCCCCCCCCOc1ccc(C(=O)O)cc1)C(=O)O)NC(=O)[C@H](CCC(N)=O)NC(=O)[C@H](CCC(=O)O)NC(=O)[C@H](CCC(=O)O)NC(=O)[C@H](CC(C)C)NC(=O)[C@H](Cc1ccc(O)cc1)NC(=O)[C@H](CO)NC(=O)[C@H](CO)NC(=O)[C@@H](NC(=O)[C@H](CC(=O)O)NC(=O)[C@H](CO)NC(=O)[C@@H](NC(=O)[C@H](Cc1ccccc1)NC(=O)[C@@H](NC(=O)CNC(=O)[C@H](CCC(=O)O)NC(=O)[C@H](C)NC(=O)[C@@H](N)Cc1c[nH]cn1)[C@@H](C)O)[C@@H](C)O)C(C)C)C(=O)N[C@@H](C)C(=O)N[C@@H](Cc1c[nH]cn1)C(=O)N[C@@H](CC(C)C)C(=O)N[C@H](C(=O)NCC(=O)O)C(C)C` [Example 25, N^ε24-[2-[2-[2-[[2-[2-[2-[[(4S)-4-carboxy-4-[10-(4-carboxyphenoxy)decanoylamino]butanoyl]amino]ethoxy]ethoxy]acetyl]amino]ethoxy]ethoxy]acetyl], N^ε27-[2-[2-[2-[[2-[2-[2-[[(4S)-4-carboxy-4-[10-(4-carboxyphenoxy)decanoylamino]butanoyl]amino]ethoxy]ethoxy]acetyl]amino]ethoxy]ethoxy]acetyl]-[Glu^22,Lys^24,Arg^26,Lys^27,His^31,Gly^34]-GLP-1-(7-34)-peptide] (H-HAEGTFTSDVSSYLEEQK([AEEA-AEEA-γGlu-Decanoyl(10-(4-HOOC-PhO))])ARK([AEEA-AEEA-γGlu-Decanoyl(10-(4-HOOC-PhO))])FIAHLVG-OH; N-terminus and C-terminus assumed), for which a half-maximal effect in data set [1] (EC50) was put at 0.38 nM. As to `CC[C@H](C)[C@H](NC(=O)[C@H](Cc1ccccc1)NC(=O)[C@H](CCCCNC(=O)COCCOCCNC(=O)COCCOCCNC(=O)CC[C@H](NC(=O)CCCCCCCCCOc1ccc(C(=O)O)cc1)C(=O)O)NC(=O)[C@H](CCCNC(=N)N)NC(=O)[C@H](C)NC(=O)[C@H](C)NC(=O)[C@H](CCC(N)=O)NC(=O)[C@H](CCC(=O)O)NC(=O)[C@H](CCC(=O)O)NC(=O)[C@H](CC(C)C)NC(=O)[C@H](Cc1ccc(O)cc1)NC(=O)[C@H](CO)NC(=O)[C@H](CO)NC(=O)[C@@H](NC(=O)[C@H](CC(=O)O)NC(=O)[C@H](CO)NC(=O)[C@@H](NC(=O)[C@H](Cc1ccccc1)NC(=O)[C@@H](NC(=O)CNC(=O)[C@H](CCC(=O)O)NC(=O)[C@H](C)NC(=O)[C@@H](N)Cc1c[nH]cn1)[C@@H](C)O)[C@@H](C)O)C(C)C)C(=O)N[C@@H](C)C(=O)N[C@@H](Cc1c[nH]c2ccccc12)C(=O)N[C@@H](CC(C)C)C(=O)N[C@H](C(=O)N[C@@H](CCCNC(=N)N)C(=O)NCC(=O)N[C@@H](CCCCNC(=O)COCCOCCNC(=O)COCCOCCNC(=O)CC[C@H](NC(=O)CCCCCCCCCOc1ccc(C(=O)O)cc1)C(=O)O)C(=O)O)C(C)C` [Example 3, N^ε27-[2-[2-[2-[[2-[2-[2-[[(4S)-4-carboxy-4-[10-(4-carboxyphenoxy)decanoylamino]butanoyl]amino]ethoxy]ethoxy]acetyl]amino]ethoxy]ethoxy]acetyl], N^ε36-[2-[2-[2-[[2-[2-[2-[[(4S)-4-carboxy-4-[10-(4-carboxyphenoxy)decanoylamino]butanoyl]amino]ethoxy]ethoxy]acetyl]amino]ethoxy]ethoxy]acetyl]-[Glu^22,Arg^26,Lys^27,Arg^34,Lys^36],des-Gly37-GLP-1-(7-36)-peptide] (H-HAEGTFTSDVSSYLEEQAARK([AEEA-AEEA-γGlu-Decanoyl(10-(4-HOOC-PhO))])FIAWLVRGK([AEEA-AEEA-γGlu-Decanoyl(10-(4-HOOC-PhO))])-OH; N-terminus and C-terminus assumed), the IC50 in data set [2] (high albumin, 2.0% HSA, read-out: IC50/nM (high HSA)) was 29 nM. In data set [3], the “Dose-corrected exposure at 30 min” value is 67.

For the compound `CC[C@H](C)[C@H](NC(=O)[C@H](Cc1ccccc1)NC(=O)[C@H](CCCCNC(=O)COCCOCCNC(=O)COCCOCCNC(=O)CC[C@H](NC(=O)CCCCCCCCCOc1ccc(C(=O)O)cc1)C(=O)O)NC(=O)[C@H](CCCNC(=N)N)NC(=O)[C@H](C)NC(=O)[C@H](C)NC(=O)[C@H](CCC(N)=O)NC(=O)[C@H](CCC(=O)O)NC(=O)[C@H](CCC(=O)O)NC(=O)[C@H](CCCCNC(=O)COCCOCCNC(=O)COCCOCCNC(=O)CC[C@H](NC(=O)CCCCCCCCCOc1ccc(C(=O)O)cc1)C(=O)O)NC(=O)[C@H](Cc1ccc(O)cc1)NC(=O)[C@H](CO)NC(=O)[C@H](CO)NC(=O)[C@@H](NC(=O)[C@H](CC(=O)O)NC(=O)[C@H](CO)NC(=O)[C@@H](NC(=O)[C@H](Cc1ccccc1)NC(=O)[C@@H](NC(=O)CNC(=O)[C@H](CCC(=O)O)NC(=O)C(C)(C)NC(=O)[C@@H](N)Cc1c[nH]cn1)[C@@H](C)O)[C@@H](C)O)C(C)C)C(=O)N[C@@H](CCC(=O)O)C(=O)N[C@@H](Cc1c[nH]c2ccccc12)C(=O)N[C@@H](CC(C)C)C(=O)N[C@H](C(=O)NCC(=O)O)C(C)C` [Example 5, N^ε20-[2-[2-[2-[[2-[2-[2-[[(4S)-4-carboxy-4-[10-(4-carboxyphenoxy)decanoylamino]butanoyl]amino]ethoxy]ethoxy]acetyl]amino]ethoxy]ethoxy]acetyl], N^ε27-[2-[2-[2-[[2-[2-[2-[[(4S)-4-carboxy-4-[10-(4-carboxyphenoxy)decanoylamino]butanoyl]amino]ethoxy]ethoxy]acetyl]amino]ethoxy]ethoxy]acetyl]-[Aib^8,Lys^20,Glu^22,Arg^26,Lys^27,Glu^30,Gly^34]-GLP-1-(7-34)-peptide] (H-H[Aib]EGTFTSDVSSYK([AEEA-AEEA-γGlu-Decanoyl(10-(4-HOOC-PhO))])EEQAARK([AEEA-AEEA-γGlu-Decanoyl(10-(4-HOOC-PhO))])FIEWLVG-OH), in data set [2] (2.0% HSA vs 0.001% HSA), the “Ratio [(IC50/nM) high HSA]/[(IC50/nM) low HSA]” value is on record as 79. In data set [3], the “Dose-corrected exposure at 30 min” value was 124.
